# Reference: patent US7648996B2 (Biotica Technology Limited, priority 2005, dated 2010)
# pIC50, pKd: −log10 of the molar value. Marks after values point to notes of the source that are not given here.
# Experiments:
# [1] = test system: panel of 12 human tumour cell lines; test: Monolayer proliferation assay, mean across the cell lines tested; assay type: cell-based; details: for pIC50: Homo sapiens
# Procedure: (§1) In vitro evaluation of compounds for anticancer activity in a panel of 12 human tumour cell lines in a monolayer proliferation assay was carried out at the Oncotest Testing Facility, Institute for Experimental Oncology, Oncotest GmbH, Freiburg.
# (§2) The Oncotest cell lines were established from human tumor xenografts as described by Roth et al. 1999. The origin of the donor xenografts was described by Fiebig et al. 1999. Other cell lines were either obtained from the NCI (H460, SF-268, OVCAR-3, DU145, MDA-MB-231, MDA-MB-468) or purchased from DSMZ, Braunschweig, Germany (LNCAP).
# (§3) All cell lines, unless otherwise specified, are grown at 37° C. in a humidified atmosphere (95% air, 5% CO2) in a ‘ready-mix’ medium containing RPMI 1640 medium, 10% fetal calf serum, and 0.1 mg/mL gentamicin (PAA, Cölbe, Germany).
# (§4) A modified propidium iodide assay was used to assess the effects of the test compound(s) on the growth of twelve human tumor cell lines (Dengler et al., (1995)).
# (§5) Briefly, cells were harvested from exponential phase cultures by trypsinization, counted and plated in 96 well flat-bottomed microtitre plates at a cell density dependent on the cell line (5-10,000 viable cells/well). After 24 h recovery to allow the cells to resume exponential growth, 0.01 mL of culture medium (6 control wells per plate) or culture medium containing macbecin are added to the wells. Each concentration is plated in triplicate. […] Following 4 days of continuous exposure, cell culture medium with or without test compound is replaced by 0.2 mL of an aqueous propidium iodide (PI) solution (7 mg/L). To measure the proportion of living cells, cells are permeabilized by freezing the plates. After thawing the plates, fluorescence is measured using the Cytofluor 4000 microplate reader (excitation 530 nm, emission 620 nm), giving a direct relationship to the total number of viable cells.
# (§6) Growth inhibition is expressed as treated/control×100 (% T/C). For active compounds, IC50 & IC70 values were estimated by plotting compound concentration versus cell viability.
# FKBP12 = FKBP12 (Homo sapiens, UniProt P62942); test: FKBP-12 in vitro binding assay (GdnHCl denaturation curve shift)
# From the text: FKBP12 reversibly unfolds in the chemical denaturant guandinium hydrochloride (GdnHCl) and the unfolding can be monitored by the change in the intrinsic fluorescence of the protein (Main et al, 1998). Ligands which specifically bind and stabilise the native state of FKBP12 shift the denaturation curve such that the protein unfolds at higher concentrations of chemical denaturant (Main et al, 1999). From the difference in stability, the ligand-binding constant can be determined using equation 1.
# [formula] where ΔGapp is the apparent difference in free energy of unfolding between free and ligand-bound forms, ΔGD-N^H^2^O is the free energy of unfolding in water of free protein, [L] the concentration of ligand and Kd the dissociation constant for the protein-ligand complex (Meiering et al, 1992). The free energy of unfolding can be related to the midpoint of the unfolding transition using the following equation: ΔGD-N^H^2^O=mD-N[D]50% (2) where mD-N is a constant for a given protein and given denaturant and which is proportional to the change in degree of exposure of residues on unfolding (Tanford 1968 and Tanford 1970), and [D]50% is the concentration of denaturant corresponding to the midpoint of unfolding. […] Under conditions where [L]>Kd, then, ΔΔGD-N, can be related to the relative Kds of the two compounds through equation 4: […]
# MDA468 = test: Monolayer proliferation assay (modified propidium iodide); assay type: cell-based, human; details: mean of duplicate experiments
# Procedure: as §1, §2, §3, §4, §5, §6
# 394NL = test: as above; assay type: cell-based, human; details: mean of duplicate experiments
# Procedure: as §1, §2, §3, §4, §5, §6
# MDA231 = test: as above; assay type: cell-based, human; details: mean of duplicate experiments
# Procedure: as §1, §2, §3, §4, §5, §6
# 1138L = test: as above; assay type: cell-based, human; details: mean of duplicate experiments
# Procedure: as §1, §2, §3, §4, §5, §6
# H460 = test: as above; assay type: cell-based, human; details: mean of duplicate experiments
# Procedure: as §1, §2, §3, §4, §5, §6
# LNCAP = test: as above; assay type: cell-based, human; details: mean of duplicate experiments
# Procedure: as §1, §2, §3, §4, §5, §6
# DU145 = test: as above; assay type: cell-based, human; details: mean of duplicate experiments
# Procedure: as §1, §2, §3, §4, §5, §6
# 251L = test: as above; assay type: cell-based, human; details: mean of duplicate experiments
# Procedure: as §1, §2, §3, §4, §5, §6
# MCF7 = test: as above; assay type: cell-based, human; details: mean of duplicate experiments
# Procedure: as §1, §2, §3, §4, §5, §6
# OVCAR3 = test: as above; assay type: cell-based, human; details: mean of duplicate experiments
# Procedure: as §1, §2, §3, §4, §5, §6
# A498 = test: as above; assay type: cell-based, human; details: mean of duplicate experiments
# Procedure: as §1, §2, §3, §4, §5, §6
# SF268 = test: as above; assay type: cell-based, human; details: mean of duplicate experiments
# Procedure: as §1, §2, §3, §4, §5, §6
# [2] = mean across the 12 cell lines tested
# [3] = mean based on the 9 cell lines for which data was available
# FKBP12, sequence (P62942 whole entry): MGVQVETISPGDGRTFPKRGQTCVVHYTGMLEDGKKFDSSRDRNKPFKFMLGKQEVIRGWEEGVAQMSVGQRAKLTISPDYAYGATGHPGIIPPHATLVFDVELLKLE
Structure (SMILES),"pIC50 [1, 2]","Mean IC70 [1, 2]",Cell Growth (Test/Control (%) at drug concentration) (394NL; 1 μM),Cell Growth (Test/Control (%) at drug concentration) (394NL; 10 μM),Cell Growth (Test/Control (%) at drug concentration) (1138L; 1 μM),Cell Growth (Test/Control (%) at drug concentration) (1138L; 10 μM),"Cell Growth (Test/Control (%) at drug concentration) (H460; H460, 1 μM)","Cell Growth (Test/Control (%) at drug concentration) (H460; H460, 10 μM)",Cell Growth (Test/Control (%) at drug concentration) (LNCAP; 1 μM),Cell Growth (Test/Control (%) at drug concentration) (LNCAP; 10 μM),"Cell Growth (Test/Control (%) at drug concentration) (DU145; DU145, 1 μM)","Cell Growth (Test/Control (%) at drug concentration) (DU145; DU145, 10 μM)",Cell Growth (Test/Control (%) at drug concentration) (251L; 1 μM),Cell Growth (Test/Control (%) at drug concentration) (251L; 10 μM),"Cell Growth (Test/Control (%) at drug concentration) (MCF7; MCF7, 1 μM)","Cell Growth (Test/Control (%) at drug concentration) (MCF7; MCF7, 10 μM)","Cell Growth (Test/Control (%) at drug concentration) (OVCAR3; OVCAR3, 1 μM)","Cell Growth (Test/Control (%) at drug concentration) (OVCAR3; OVCAR3, 10 μM)","Cell Growth (Test/Control (%) at drug concentration) (SF268; SF268, 1 μM)","Cell Growth (Test/Control (%) at drug concentration) (SF268; SF268, 10 μM)",further results
"COC1CC2CCC(C)C(O)(O2)C(=O)C(=O)N2CCCCC2C(=O)OC(C(C)CC2CCC(OC(=O)C(C)(CO)CO)CC2)CC(=O)C(C)C=C(C)C(O)C(OC)C(=O)C(C)CC(C)C=CC=CC=C1C (centres unmarked) [39-desmethoxy-40-O-[2,2-bis(hydroxymethyl)propionyl]rapamycin]",5.70,4.5 µM,46%,13%,50%,7.5%,66%,12%,48.5%,20.5%,62.5%,13.5%,85.5%,13%,67%,9%,73.5%,39%,62.5%,12%,"pKd (FKBP12): 8.96; Cell Growth (Test/Control (%) at drug concentration) (MDA468; MDA468, 1 μM): 66%; Cell Growth (Test/Control (%) at drug concentration) (MDA468; MDA468, 10 μM): 9%; Cell Growth (Test/Control (%) at drug concentration) (MDA231; MDA231, 1 μM): 70.5%; Cell Growth (Test/Control (%) at drug concentration) (MDA231; MDA231, 10 μM): 13.5%; Cell Growth (Test/Control (%) at drug concentration) (A498; A498, 1 μM): 66%; Cell Growth (Test/Control (%) at drug concentration) (A498; A498, 10 μM): 19.5%"
"CO[C@H]1C[C@@H]2CC[C@@H](C)[C@@](O)(O2)C(=O)C(=O)N2CCCC[C@H]2C(=O)O[C@H]([C@H](C)C[C@@H]2CC[C@@H](O)[C@H](OC)C2)CC(=O)[C@H](C)/C=C(\C)[C@@H](O)[C@@H](OC)C(=O)[C@H](C)C[C@H](C)/C=C/C=C/C=C/1C [Rapamycin, reference compound]",5.46,9.1 µM,45%,44%,42%,21.5%,67%,66%,61%,34%,50.5%,54%,75.5%,40%,68.5%,26.5%,69%,69.5%,53.5%,46%,"Cell Growth (Test/Control (%) at drug concentration) (MDA468; MDA468, 1 μM): 56.5%; Cell Growth (Test/Control (%) at drug concentration) (MDA468; MDA468, 10 μM): 32%; Cell Growth (Test/Control (%) at drug concentration) (MDA231; MDA231, 1 μM): 67%; Cell Growth (Test/Control (%) at drug concentration) (MDA231; MDA231, 10 μM): 63.5%; Cell Growth (Test/Control (%) at drug concentration) (A498; A498, 1 μM): 58.5%; Cell Growth (Test/Control (%) at drug concentration) (A498; A498, 10 μM): 48.5%"
COC1CC2CCC(C)C(O)(O2)C(=O)C(=O)N2CCCCC2C(=O)OC(C(C)CC2CCC(OCCO)CC2)CC(=O)C(C)C=C(C)C(O)C(OC)C(=O)C(C)CC(C)C=CC=CC=C1C (centres unmarked) [39-desmethoxy-40-O-(2-hydroxy)ethyl rapamycin],,,55%,6%,59%,4%,76%,25%,49%,18%,56%,7%,90%,31%,77%,10%,85%,9%,63%,7%,"pIC50 [1, 3]: 5.66; Mean IC70 [1, 3]: 5.513* microM; pKd (FKBP12): 8.43"
